Test results as given in patent publication US8691811B2, “Quinazolinone linked pyrrolo[2,1-c][1,4]benzodiazepine hybrids as potential anticancer agents and process for the preparation thereof” (Council of Scientific & Industrial Research, priority 2008, dated 2014).

Key:
HCT-15 = assay: NCI cytotoxicity (SRB, 48 h), HCT-15; type: cell-based, human; details: HCT-15, colon
Method: (§1) The C8-linked quinazolinone-PBD hybrid (5d) has been tested against sixty human tumour cell lines derived from nine cancer types (leukemia, non-small cell lung cancer, colon cancer, CNS cancer, melanoma, ovarian cancer, renal cancer, prostate cancer and breast cancer) as per NCI protocol. For each compound, dose response curves for individual cell lines have been measured at a minimum of five concentrations at 10 fold dilutions. A protocol of 48 h continuous drug exposure has been used, and a sulforhodamine B (SRB) protein assay was used to estimate cell viability or growth. The concentration for 50% cell growth inhibition (GI50), total cell growth inhibition (TGI, 0% growth) and 50% cell death (LC50, […]) compared with the control has been calculated (Table-1). Compound 5d has been evaluated for their in vitro cytotoxicity in sixty cell lines from nine human cancer types of lung (Hop-62, NCI-H226, NCI-H522), leukemia (K-562, SR), colon (HCT-116, HCT-15, HCC-2998), CNS(SF-539), melanoma (SK-MEL-5, UACC-62, M14), ovarian (IGROV1), renal (A498), prostate (PC3) breast (BT-549, MDA-MB-435, HS578T) origin. The results are expressed as percent of cell growth determined relative to that of untreated control cells (Table 2). The representative compound 5d has shown significant cytotoxicity against some cancer cell lines.

SK-MEL-2 = assay: NCI cytotoxicity (SRB, 48 h), SK-MEL-2; type: cell-based, human; details: SK-MEL-2, melanoma
Method: as §1

MOLT-4 = assay: NCI cytotoxicity (SRB, 48 h), MOLT-4; type: cell-based, human; details: MOLT-4, leukemia
Method: as §1

NCI-H23 = assay: NCI cytotoxicity (SRB, 48 h), NCI-H23; type: cell-based, human; details: NCI-H23, non-small cell lung
Method: as §1

786-0 = assay: NCI cytotoxicity (SRB, 48 h), 786-0; type: cell-based, human; details: 786-0, renal
Method: as §1

SNB-19 = assay: NCI cytotoxicity (SRB, 48 h), SNB-19; type: cell-based, human; details: SNB-19, CNS
Method: as §1

Leukemia cell lines = assay: NCI cytotoxicity (SRB, 48 h), leukemia panel; type: cell-based, human; details: Leukemia panel average
Method: as §1

SN12C = assay: NCI cytotoxicity (SRB, 48 h), SN12C; type: cell-based, human; details: renal
Method: as §1

LOX IMVI = assay: NCI cytotoxicity (SRB, 48 h), LOX IMVI; type: cell-based, human; details: melanoma
Method: as §1

TK-10 = assay: NCI cytotoxicity (SRB, 48 h), TK-10; type: cell-based, human; details: TK-10, renal
Method: as §1

RXF 393 = assay: NCI cytotoxicity (SRB, 48 h), RXF 393; type: cell-based, human; details: RXF 393, renal
Method: as §1

SK-MEL-28 = assay: NCI cytotoxicity (SRB, 48 h), SK-MEL-28; type: cell-based, human; details: SK-MEL-28, melanoma
Method: as §1

HCT-116 = assay: NCI cytotoxicity (SRB, 48 h), HCT-116; type: cell-based, human; details: HCT-116, colon
Method: as §1

OVCAR-3 = assay: NCI cytotoxicity (SRB, 48 h), OVCAR-3; type: cell-based, human; details: OVCAR-3, ovarian
Method: as §1

PC-3 = assay: NCI cytotoxicity (SRB, 48 h), PC-3; type: cell-based, human; details: PC-3, prostate
Method: as §1

NCI-H522 = assay: NCI cytotoxicity (SRB, 48 h), NCI-H522; type: cell-based, human; details: NCI-H522, non-small cell lung
Method: as §1

[1] = test system: Prostate cancer cell lines; assay: NCI cytotoxicity (SRB, 48 h), prostate panel; type: cell-based, human; details: Prostate panel average
Method: as §1

SR = assay: NCI cytotoxicity (SRB, 48 h), SR; type: cell-based, human; details: leukemia
Method: as §1

MALME-3M = assay: NCI cytotoxicity (SRB, 48 h), MALME-3M; type: cell-based, human; details: melanoma
Method: as §1

OVCAR-8 = assay: NCI cytotoxicity (SRB, 48 h), OVCAR-8; type: cell-based, human; details: OVCAR-8, ovarian
Method: as §1

Melanoma cell lines = assay: NCI cytotoxicity (SRB, 48 h), melanoma panel; type: cell-based, human; details: Melanoma panel average
Method: as §1

[2] = test system: Ovarian cancer cell lines; assay: NCI cytotoxicity (SRB, 48 h), ovarian panel; type: cell-based, human; details: Ovarian panel average
Method: as §1

[3] = test system: sixty human tumour cell lines; assay: NCI in vitro cytotoxicity screen (SRB, 48 h), all cell lines; type: cell-based; details: 48 h exposure
Method: as §1

RPMI-8226 = assay: NCI cytotoxicity (SRB, 48 h), RPMI-8226; type: cell-based, human; details: RPMI-8226, leukemia
Method: as §1

NCI/ADR-RES = assay: NCI cytotoxicity (SRB, 48 h), NCI/ADR-RES; type: cell-based, human; details: breast
Method: as §1

CNS cancer cell lines = assay: NCI cytotoxicity (SRB, 48 h), CNS panel; type: cell-based, human; details: CNS panel average
Method: as §1

OVCAR-5 = assay: NCI cytotoxicity (SRB, 48 h), OVCAR-5; type: cell-based, human; details: OVCAR-5, ovarian
Method: as §1

CCRF-CEM = assay: NCI cytotoxicity (SRB, 48 h), CCRF-CEM; type: cell-based, human; details: leukemia
Method: as §1

SF-539 = assay: NCI cytotoxicity (SRB, 48 h), SF-539; type: cell-based, human; details: SF-539, CNS
Method: as §1

SK-OV-3 = assay: NCI cytotoxicity (SRB, 48 h), SK-OV-3; type: cell-based, human; details: SK-OV-3, ovarian
Method: as §1

HL-60(TB) = assay: NCI cytotoxicity (SRB, 48 h), HL-60(TB); type: cell-based, human; details: leukemia
Method: as §1

K-562 = assay: NCI cytotoxicity (SRB, 48 h), K-562; type: cell-based, human; details: K-562, leukemia
Method: as §1

[4] = test system: Non-small cell lung cancer cell lines; assay: NCI cytotoxicity (SRB, 48 h), non-small cell lung panel; type: cell-based, human; details: Non-small-cell lung panel average
Method: as §1

HT29 = assay: NCI cytotoxicity (SRB, 48 h), HT29; type: cell-based, human; details: HT29, colon
Method: as §1

CAKI-1 = assay: NCI cytotoxicity (SRB, 48 h), CAKI-1; type: cell-based, human; details: CAKI-1, renal
Method: as §1

SNB-75 = assay: NCI cytotoxicity (SRB, 48 h), SNB-75; type: cell-based, human; details: SNB-75, CNS
Method: as §1

UO-31 = assay: NCI cytotoxicity (SRB, 48 h), UO-31; type: cell-based, human; details: UO-31, renal
Method: as §1

COc1cc2c(cc1OCCCCCOc1ccc(-n3c(C)nc4ccccc4c3=O)cc1)N=C[C@@H]1CCCN1C2=O [5d, 7-methoxy-8-{5-[4-(2-methyl-4-oxo-3,4-dihydro-3-quinazolinyl)phenoxy]pentyloxy-}-(11aS)-1,2,3,11a-tetrahydro-5H-pyrrolo[2,1-c][1,4]benzodiazepine-5-one]
GI50 (HCT-15): 1090 nM | GI50 (SK-MEL-2): 420 nM | GI50 (MOLT-4): 190 nM | GI50 (NCI-H23): 230 nM | GI50 (786-0): 170 nM | GI50 (SNB-19): 280 nM | Log10 GI50 (Leukemia cell lines): −6.85 mol/L | Log10 LC50 (Leukemia cell lines): −5.30 | GI50 (SN12C): 240 nM | GI50 (LOX IMVI): 150 nM | GI50 (TK-10): 310 nM | GI50 (RXF 393): 210 nM | GI50 (SK-MEL-28): 200 nM | GI50 (HCT-116): 150 nM | GI50 (OVCAR-3): 200 nM | GI50 (PC-3): 290 nM | GI50 (NCI-H522): 120 nM | Log10 GI50 [1]: −6.55 mol/L | Log10 LC50 [1]: −5.19 | GI50 (SR): 110 nM | GI50 (MALME-3M): 230 nM | GI50 (OVCAR-8): 340 nM | Log10 GI50 (Melanoma cell lines): −6.65 mol/L | Log10 LC50 (Melanoma cell lines): −5.90 | Log10 GI50 [2]: −6.52 mol/L | Log10 LC50 [2]: −4.79 | GI50 ([3]; bound over all sixty cell lines, read-out: GI50 value against sixty cell lines in nine cell panels): < 1730 nM | Log10 GI50 mean graph midpoint (MG_MID) ([3]; human tumour cell lines): −6.63 | Log10 LC50 mean graph midpoint (MG_MID) ([3]; human tumour cell lines): −5.21 | Log10 TGI mean graph midpoint (MG_MID) ([3]; human tumour cell lines): −6.15 | GI50 (RPMI-8226): 190 nM | GI50 (NCI/ADR-RES): 1730 nM | Log10 GI50 (CNS cancer cell lines): −6.59 mol/L | Log10 LC50 (CNS cancer cell lines): −4.88 | GI50 (OVCAR-5): 330 nM | GI50 (CCRF-CEM): 160 nM | GI50 (SF-539): 220 nM | GI50 (SK-OV-3): 430 nM | GI50 (HL-60(TB)): 180 nM | GI50 (K-562): 60 nM | Log10 GI50 [4]: −6.59 mol/L | Log10 LC50 [4]: −5.02 | GI50 (HT29): 260 nM | GI50 (CAKI-1): 190 nM | GI50 (SNB-75): 380 nM | GI50 (UO-31): 360 nM
